Assays:
[1] = molecular target: Beta-adrenergic receptor kinase 1 (Homo sapiens) (UniProt P25098); assay: Inhibition of GRK2 (unknown origin) assessed as residual activity at 1000 nM by KINOMEscan analysis relative to control
[2] = molecular target: SRSF protein kinase 1 (Homo sapiens) (UniProt Q96SB4); assay: Inhibition of SRPK1 (unknown origin) assessed as residual activity at 100 nM by KINOMEscan analysis relative to control
[3] = molecular target: T1, Mitogen-activated protein kinase kinase kinase 15 (Homo sapiens) (UniProt Q6ZN16); assay: Inhibition of MAP3K15 (unknown origin) assessed as residual activity at 100 nM by KINOMEscan analysis relative to control
T1 sequence (whole entry): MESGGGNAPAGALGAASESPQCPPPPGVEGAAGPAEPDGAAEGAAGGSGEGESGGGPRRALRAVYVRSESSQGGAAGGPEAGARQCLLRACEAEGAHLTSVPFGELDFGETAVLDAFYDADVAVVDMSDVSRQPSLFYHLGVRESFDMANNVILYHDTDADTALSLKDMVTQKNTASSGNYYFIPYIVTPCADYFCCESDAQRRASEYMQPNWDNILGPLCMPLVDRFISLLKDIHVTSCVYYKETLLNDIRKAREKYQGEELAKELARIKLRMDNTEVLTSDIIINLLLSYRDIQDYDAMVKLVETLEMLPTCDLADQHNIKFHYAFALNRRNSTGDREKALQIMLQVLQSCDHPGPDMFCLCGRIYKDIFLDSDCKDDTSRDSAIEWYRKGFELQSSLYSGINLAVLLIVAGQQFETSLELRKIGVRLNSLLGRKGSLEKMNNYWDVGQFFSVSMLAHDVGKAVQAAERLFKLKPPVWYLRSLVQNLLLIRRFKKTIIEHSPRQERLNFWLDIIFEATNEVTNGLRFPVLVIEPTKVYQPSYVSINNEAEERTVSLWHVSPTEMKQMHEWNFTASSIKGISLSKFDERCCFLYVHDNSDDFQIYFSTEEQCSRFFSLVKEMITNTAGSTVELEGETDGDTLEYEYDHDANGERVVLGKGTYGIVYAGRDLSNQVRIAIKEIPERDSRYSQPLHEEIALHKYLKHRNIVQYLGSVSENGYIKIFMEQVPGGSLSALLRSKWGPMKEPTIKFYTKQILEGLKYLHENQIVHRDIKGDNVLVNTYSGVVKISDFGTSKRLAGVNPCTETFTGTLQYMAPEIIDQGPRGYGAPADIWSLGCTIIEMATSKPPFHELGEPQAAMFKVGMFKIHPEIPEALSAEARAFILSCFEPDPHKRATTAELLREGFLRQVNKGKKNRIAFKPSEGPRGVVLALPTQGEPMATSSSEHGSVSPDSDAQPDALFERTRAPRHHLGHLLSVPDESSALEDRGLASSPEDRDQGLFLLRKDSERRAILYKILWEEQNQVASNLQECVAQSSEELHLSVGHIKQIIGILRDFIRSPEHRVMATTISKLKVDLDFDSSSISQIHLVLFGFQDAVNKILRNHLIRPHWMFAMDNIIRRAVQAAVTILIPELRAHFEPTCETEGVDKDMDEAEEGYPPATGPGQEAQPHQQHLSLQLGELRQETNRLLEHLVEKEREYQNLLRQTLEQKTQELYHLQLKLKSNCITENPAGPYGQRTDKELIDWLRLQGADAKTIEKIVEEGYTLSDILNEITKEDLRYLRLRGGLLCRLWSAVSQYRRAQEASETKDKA

[4] = molecular target: Casein kinase I isoform epsilon (Homo sapiens) (UniProt P49674); assay: Inhibition of CSNK1E (unknown origin) assessed as residual activity at 100 nM by KINOMEscan analysis relative to control
[5] = molecular target: Non-receptor tyrosine-protein kinase TYK2 (Homo sapiens) (UniProt P29597); assay: Inhibition of TYK2 JH2 pseudokinase domain (unknown origin) assessed as residual activity at 100 nM by KINOMEscan analysis relative to control
[6] = molecular target: T2, Myosin light chain kinase family member 4 (Homo sapiens) (UniProt Q86YV6); assay: Inhibition of MYLK4 (unknown origin) assessed as residual activity at 100 nM by KINOMEscan analysis relative to control
T2 sequence (whole entry): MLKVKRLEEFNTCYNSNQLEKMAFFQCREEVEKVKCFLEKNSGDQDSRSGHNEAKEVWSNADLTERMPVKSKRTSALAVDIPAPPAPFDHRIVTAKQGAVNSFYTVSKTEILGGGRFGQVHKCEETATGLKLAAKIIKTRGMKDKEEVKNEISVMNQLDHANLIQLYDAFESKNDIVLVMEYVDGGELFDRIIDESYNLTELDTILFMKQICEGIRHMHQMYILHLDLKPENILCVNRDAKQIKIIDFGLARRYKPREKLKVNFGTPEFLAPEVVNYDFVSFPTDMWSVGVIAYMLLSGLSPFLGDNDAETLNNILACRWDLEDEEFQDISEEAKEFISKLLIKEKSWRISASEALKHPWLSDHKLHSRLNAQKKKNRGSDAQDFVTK

[7] = molecular target: T3, Discoidin domain-containing receptor 2 (Homo sapiens) (UniProt Q16832); assay: Inhibition of DDR2 (unknown origin) assessed as residual activity at 100 nM by KINOMEscan analysis relative to control
T3 sequence (whole entry): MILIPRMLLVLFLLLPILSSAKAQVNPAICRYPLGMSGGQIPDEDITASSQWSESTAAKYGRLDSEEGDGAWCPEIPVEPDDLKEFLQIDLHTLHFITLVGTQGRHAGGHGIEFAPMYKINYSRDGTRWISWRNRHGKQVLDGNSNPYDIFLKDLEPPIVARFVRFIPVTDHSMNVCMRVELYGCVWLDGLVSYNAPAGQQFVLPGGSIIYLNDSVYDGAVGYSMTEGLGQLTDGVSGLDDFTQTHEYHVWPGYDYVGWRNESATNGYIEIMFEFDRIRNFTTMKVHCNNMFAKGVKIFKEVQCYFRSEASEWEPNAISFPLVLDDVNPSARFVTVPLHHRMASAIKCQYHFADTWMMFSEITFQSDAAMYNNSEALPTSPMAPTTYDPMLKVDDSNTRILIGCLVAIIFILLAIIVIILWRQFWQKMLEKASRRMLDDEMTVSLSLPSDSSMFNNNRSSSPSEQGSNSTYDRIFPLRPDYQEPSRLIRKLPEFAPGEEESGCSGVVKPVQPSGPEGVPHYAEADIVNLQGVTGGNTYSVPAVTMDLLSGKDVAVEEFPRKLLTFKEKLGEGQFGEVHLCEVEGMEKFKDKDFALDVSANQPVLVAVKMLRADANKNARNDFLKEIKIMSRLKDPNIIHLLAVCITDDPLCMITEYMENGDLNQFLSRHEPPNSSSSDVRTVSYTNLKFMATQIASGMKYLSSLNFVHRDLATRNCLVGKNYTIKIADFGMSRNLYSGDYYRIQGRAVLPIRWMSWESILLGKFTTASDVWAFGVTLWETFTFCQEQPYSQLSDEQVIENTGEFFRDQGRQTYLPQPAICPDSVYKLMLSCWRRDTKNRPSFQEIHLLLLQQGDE

Sequence of SRSF protein kinase 1 (Homo sapiens) (Q96SB4 whole entry): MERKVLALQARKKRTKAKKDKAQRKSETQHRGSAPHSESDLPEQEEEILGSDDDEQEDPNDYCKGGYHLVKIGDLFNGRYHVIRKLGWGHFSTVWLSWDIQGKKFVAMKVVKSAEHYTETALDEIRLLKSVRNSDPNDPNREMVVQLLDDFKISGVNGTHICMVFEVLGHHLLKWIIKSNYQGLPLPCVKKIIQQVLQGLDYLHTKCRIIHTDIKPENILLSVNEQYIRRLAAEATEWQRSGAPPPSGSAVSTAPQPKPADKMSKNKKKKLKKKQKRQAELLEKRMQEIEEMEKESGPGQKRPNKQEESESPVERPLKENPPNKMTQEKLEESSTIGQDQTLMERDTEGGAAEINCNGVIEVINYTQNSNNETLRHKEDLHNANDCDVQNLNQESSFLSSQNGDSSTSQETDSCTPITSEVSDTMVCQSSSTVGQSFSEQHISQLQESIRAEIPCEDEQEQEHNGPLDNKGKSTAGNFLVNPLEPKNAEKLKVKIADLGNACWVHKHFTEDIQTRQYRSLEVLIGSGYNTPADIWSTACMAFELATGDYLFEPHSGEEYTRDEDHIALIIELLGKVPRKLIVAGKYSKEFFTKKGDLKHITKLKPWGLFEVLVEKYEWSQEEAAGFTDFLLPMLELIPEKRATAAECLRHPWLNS
Sequence of Casein kinase I isoform epsilon (Homo sapiens) (P49674 whole entry, looked up, the tested form may be a part, canonical isoform): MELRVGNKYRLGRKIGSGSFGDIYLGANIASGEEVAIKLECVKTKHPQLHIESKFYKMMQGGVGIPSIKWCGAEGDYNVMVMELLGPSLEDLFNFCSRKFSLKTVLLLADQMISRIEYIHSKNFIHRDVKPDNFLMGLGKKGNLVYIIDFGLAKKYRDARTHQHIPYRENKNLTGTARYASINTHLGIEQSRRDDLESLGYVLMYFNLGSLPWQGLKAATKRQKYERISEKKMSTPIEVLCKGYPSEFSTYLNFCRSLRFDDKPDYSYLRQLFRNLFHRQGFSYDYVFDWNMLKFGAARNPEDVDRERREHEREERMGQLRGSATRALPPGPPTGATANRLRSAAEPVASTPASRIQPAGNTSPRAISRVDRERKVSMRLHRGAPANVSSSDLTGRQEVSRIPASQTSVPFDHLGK
Sequence of Non-receptor tyrosine-protein kinase TYK2 (Homo sapiens) (P29597 whole entry, the tested form may be a part): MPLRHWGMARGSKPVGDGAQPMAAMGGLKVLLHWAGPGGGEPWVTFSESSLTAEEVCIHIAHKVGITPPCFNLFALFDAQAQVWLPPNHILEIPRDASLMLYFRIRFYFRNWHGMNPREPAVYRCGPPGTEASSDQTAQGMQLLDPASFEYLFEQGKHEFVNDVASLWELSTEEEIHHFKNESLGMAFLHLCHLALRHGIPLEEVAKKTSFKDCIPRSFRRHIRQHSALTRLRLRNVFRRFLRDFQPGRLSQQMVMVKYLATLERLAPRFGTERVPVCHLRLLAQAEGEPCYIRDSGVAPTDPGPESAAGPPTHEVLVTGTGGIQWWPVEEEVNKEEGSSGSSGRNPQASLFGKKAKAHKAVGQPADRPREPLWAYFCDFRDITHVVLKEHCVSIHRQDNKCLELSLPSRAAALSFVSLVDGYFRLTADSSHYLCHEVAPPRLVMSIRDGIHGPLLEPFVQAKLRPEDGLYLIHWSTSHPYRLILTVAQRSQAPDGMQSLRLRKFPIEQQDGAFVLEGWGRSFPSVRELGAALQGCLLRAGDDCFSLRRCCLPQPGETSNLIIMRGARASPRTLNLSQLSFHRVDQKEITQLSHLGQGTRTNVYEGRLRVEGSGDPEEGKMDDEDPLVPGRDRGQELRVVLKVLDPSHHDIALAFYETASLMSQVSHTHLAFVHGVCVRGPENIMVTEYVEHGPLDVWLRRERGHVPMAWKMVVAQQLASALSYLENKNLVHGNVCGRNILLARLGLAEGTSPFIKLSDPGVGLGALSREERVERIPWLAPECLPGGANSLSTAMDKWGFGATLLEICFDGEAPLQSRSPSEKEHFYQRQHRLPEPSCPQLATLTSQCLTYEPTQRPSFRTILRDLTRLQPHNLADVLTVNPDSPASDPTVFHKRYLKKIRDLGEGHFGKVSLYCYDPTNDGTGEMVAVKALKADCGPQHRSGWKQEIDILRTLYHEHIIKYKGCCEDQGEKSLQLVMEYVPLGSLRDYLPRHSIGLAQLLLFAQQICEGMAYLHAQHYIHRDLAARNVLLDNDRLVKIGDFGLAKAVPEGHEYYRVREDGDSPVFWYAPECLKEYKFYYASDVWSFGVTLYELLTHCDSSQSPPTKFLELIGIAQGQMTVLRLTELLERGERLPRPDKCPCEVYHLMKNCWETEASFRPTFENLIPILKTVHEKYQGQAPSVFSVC
Sequence of Beta-adrenergic receptor kinase 1 (Homo sapiens) (P25098 whole entry): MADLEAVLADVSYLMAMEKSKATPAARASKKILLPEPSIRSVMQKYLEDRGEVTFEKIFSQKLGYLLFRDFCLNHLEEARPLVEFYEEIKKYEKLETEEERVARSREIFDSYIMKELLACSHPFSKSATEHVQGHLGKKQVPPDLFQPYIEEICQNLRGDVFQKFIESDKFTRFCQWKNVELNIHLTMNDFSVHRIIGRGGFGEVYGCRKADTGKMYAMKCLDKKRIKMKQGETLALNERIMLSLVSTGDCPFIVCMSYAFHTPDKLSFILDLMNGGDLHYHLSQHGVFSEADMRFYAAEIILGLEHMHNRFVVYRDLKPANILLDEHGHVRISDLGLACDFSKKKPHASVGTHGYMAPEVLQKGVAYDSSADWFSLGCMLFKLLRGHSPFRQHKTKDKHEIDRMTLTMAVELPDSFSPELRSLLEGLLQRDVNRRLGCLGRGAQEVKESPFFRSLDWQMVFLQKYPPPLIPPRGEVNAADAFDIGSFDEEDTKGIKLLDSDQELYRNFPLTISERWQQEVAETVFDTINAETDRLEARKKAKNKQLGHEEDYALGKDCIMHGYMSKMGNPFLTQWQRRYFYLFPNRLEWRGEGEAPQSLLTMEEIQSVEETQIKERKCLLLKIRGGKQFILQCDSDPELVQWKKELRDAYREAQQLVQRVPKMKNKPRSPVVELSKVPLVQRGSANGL

Compound | Activity [1] | Activity [2] | Activity [3] | Activity [4] | Activity [5] | Activity [6] | Activity [7]
COc1cc2nc(C)nc(N[C@H](C)c3cccc(-c4cn[nH]c4)c3)c2cc1OC | 62% | – | – | – | – | – | –
COc1cc2ncnc(N[C@H](C)c3cccc4ccccc34)c2cc1OC | – | 95% | 86% | 97% | 100% | 99% | 67%

Reference: ChEMBL document CHEMBL5678818, “Discovery of potent SOS1 inhibitors that block RAS activation via disruption of the RAS-SOS1 interaction” (Proc Natl Acad Sci U S A, 2019)
